Source: ChEMBL document CHEMBL5532705, “Bioactivity-Based Molecular Networking-Guided Isolation of Epicolidines A-C from the Endophytic Fungus Epicoccum sp. 1-042” (2024)
Numbered stars: 1 amine (or outer) side, 2 acyl side, 3 side chain; on linkers, the order of the positions; unused ones are H or OH. Bridge positions count the residues as written; N and C are the ends. Square brackets hold non-standard residues; d marks the D form. Peptide text beside a SMILES is read from it. * marks the point of attachment. X1 = O=C1C[C@@H](C(=O)[*:2])N([*:1])C[C@H]1CS[C@@H]1CN2CCC1CC2; NMePhe(4-NMe2) = CN[C@@H](Cc1ccc(N(C)C)cc1)C(=O)O; Picolinoyl(3-OH) = O=C(c1ncccc1O)*; Phg = N[C@H](C(=O)O)c1ccccc1; dAbu = CC[C@@H](N)C(=O)O

Columns and labels:
Assay type in all cases: functional
[1] = test system: Enterococcus faecium; test: Antimicrobial activity against vancomycin resistant Enterococcus faecium 310682 assessed as inhibition of microbial growth incubated for 16 hrs by broth microdilution method
[2] = test system: Enterococcus faecium; test: Antimicrobial activity against Enterococcus faecium ATCC 35667 assessed as inhibition of microbial growth incubated for 16 hrs by broth microdilution method
[3] = test system: Staphylococcus aureus; test: Antimicrobial activity against Staphylococcus aureus ATCC 29213 assessed as inhibition of microbial growth incubated for 16 hrs by broth microdilution method
[4] = test system: Candida albicans; test: Antimicrobial activity against Candida albicans ATCC 10231 assessed as inhibition of microbial growth incubated for 16 hrs by broth microdilution method
[5] = test system: Escherichia coli; test: Antimicrobial activity against Escherichia coli ATCC 25922 assessed as inhibition of microbial growth incubated for 16 hrs by broth microdilution method
[6] = test system: Candida tropicalis; test: Antimicrobial activity against Candida tropicalis ATCC 1369 assessed as inhibition of microbial growth incubated for 16 hrs by broth microdilution method
[7] = test system: Staphylococcus aureus; test: Antimicrobial activity against methicillin resistant Staphylococcus aureus 181404 assessed as inhibition of microbial growth incubated for 16 hrs by broth microdilution method
[8] = test system: Klebsiella pneumoniae; test: Antimicrobial activity against Klebsiella pneumoniae ATCC 700603 assessed as inhibition of microbial growth incubated for 16 hrs by broth microdilution method
[9] = test system: Pseudomonas aeruginosa; test: Antimicrobial activity against Pseudomonas aeruginosa ATCC 27853 assessed as inhibition of microbial growth incubated for 16 hrs by broth microdilution method
[10] = test system: Enterococcus faecium; test: Antibacterial activity against vancomycin resistant Enterococcus faecium 310682 infected in Galleria mellonella last-instar larvae assessed as survival at 1 mg/kg measured after 1 day (reference value: 30%); conditions: Enterococcus faecium, 310682, 24 h
[11] = test system: Enterococcus faecium; test: Antibacterial activity against vancomycin resistant Enterococcus faecium 310682 infected in Galleria mellonella last-instar larvae assessed as survival at 10 mg/kg measured after 1 day (reference value: 30%); conditions: Enterococcus faecium, 310682, 24 h
[12] = test system: Enterococcus faecium; test: Antibacterial activity against vancomycin resistant Enterococcus faecium 310682 infected in Galleria mellonella last-instar larvae assessed as survival at 0.20 mg/kg measured after 1 day (reference value: 30%); conditions: Enterococcus faecium, 310682, 24 h
[13] = test system: Enterococcus faecium; test: Antimicrobial activity against vancomycin resistant Enterococcus faecium 310682 assessed as inhibition of microbial growth incubated for 16 hrs in presence of quinupristin by broth microdilution method
[14] = test system: Enterococcus faecium; test: Antimicrobial activity against vancomycin resistant Enterococcus faecium 310682 assessed as inhibition of microbial growth incubated for 16 hrs in presence of dalfopristin by broth microdilution method

Row | SMILES | MIC [1] [µg/mL] | MIC [2] [µg/mL] | MIC [3] [µg/mL] | MIC [4] [µg/mL] | MIC [5] [µg/mL] | MIC [6] [µg/mL] | MIC [7] [µg/mL] | MIC [8] [µg/mL] | MIC [9] [µg/mL] | survival at 1 mg/kg [10] [%] | survival at 10 mg/kg [11] [%] | survival at 0.2 mg/kg [12] [%] | MIC [13] [µg/mL] | MIC [14] [µg/mL]
1 | C=C([C@H](C)O)[C@H]1C=C[C@H]2C[C@@H](C)C[C@@H](C)[C@H]2[C@@H]1/C(O)=C1\C(=O)[C@H]([C@@H](C)CC)N(C)C1=O | 2 | 8 | 2 | 128 | > 128 | > 128 | 2 | > 128 | > 128 |  |  |  |  | 
2 | CC[C@H](C)[C@@H]1N(C)C(=O)[C@H]2C(=O)[C@H]3[C@@H]4[C@H](C)C[C@H](C)C[C@@H]4C=C[C@@H]3[C@@]3(C)O[C@]21O[C@H]3C | 16 | 64 | 64 | > 128 | > 128 | > 128 | 16 | > 128 | > 128 |  |  |  |  | 
3 | CC[C@H](C)[C@H]1C(=O)/C(=C(/O)[C@H]2[C@@H]3[C@H](C)C[C@H](C)C[C@@H]3C=C[C@@H]2[C@]2(C)O[C@H]2C)C(=O)N1C | 0.25 | 1 | 0.25 | 8 | > 128 | > 128 | 0.5 | > 128 | > 128 | 40 | 100 | 0 |  | 
4 | CCN(CC)CCS(=O)(=O)[C@@H]1CCN2C(=O)c3coc(n3)CC(=O)C[C@H](O)/C=C(C)/C=C/CNC(=O)/C=C/[C@@H](C)[C@@H](C(C)C)OC(=O)[C@@H]12 [DALFOPRISTIN] |  |  |  |  |  |  |  |  |  |  |  |  | 0.5 | 
5 | OC(Cn1cncn1)(Cn1cncn1)c1ccc(F)cc1F [FLUCONAZOLE] |  |  |  | 8 |  | 2 |  |  |  |  |  |  |  | 
6 | C[C@@H](O)[C@H]1C(=O)N2C(C(=O)O)=C(S[C@@H]3CN[C@H](C(=O)N(C)C)C3)[C@H](C)[C@H]12 [MEROPENEM] | > 16 | > 16 | 2 |  | 0.5 |  | > 16 | 2 | 16 |  |  |  |  | 
7 | CC[C@H]1NC(=O)[C@@H](NC(=O)c2ncccc2O)[C@@H](C)OC(=O)[C@H](c2ccccc2)NC(=O)[C@@H]2CC(=O)[C@H](CS[C@@H]3CN4CCC3CC4)CN2C(=O)[C@H](Cc2ccc(N(C)C)cc2)N(C)C(=O)[C@@H]2CCCN2C1=O [QUINUPRISTIN] ({Picolinoyl(3-OH)}-T[dAbu]P[NMePhe(4-NMe2)][X1][Phg]; ester 1-C) |  |  |  |  |  |  |  |  |  |  |  |  |  | 0.5
8 | CN[C@H](CC(C)C)C(=O)N[C@H]1C(=O)N[C@@H](CC(N)=O)C(=O)N[C@H]2C(=O)N[C@H]3C(=O)N[C@H](C(=O)N[C@H](C(=O)O)c4cc(O)cc(O)c4-c4cc3ccc4O)[C@H](O)c3ccc(c(Cl)c3)Oc3cc2cc(c3O[C@@H]2O[C@H](CO)[C@@H](O)[C@H](O)[C@H]2O[C@H]2C[C@](C)(N)[C@H](O)[C@H](C)O2)Oc2ccc(cc2Cl)[C@H]1O [VANCOMYCIN] | > 16 |  |  |  |  |  | 0.25 |  |  |  |  |  |  | 
